Here are results for two compounds from ChEMBL document CHEMBL1138899, “Acyclic nucleoside analogues as inhibitors of Plasmodium falciparum dUTPase” (J Med Chem, 2006).

Bounds are passed on as bounds.

Data set [1] relates to L6. As to the kind of experiment: Cytotoxicity against rat L6 cells. It is filed as functional, cell-based.
For data set [2], the target named is T1, Deoxyuridine 5'-triphosphate nucleotidohydrolase, mitochondrial (Homo sapiens, UniProt P33316).
T1 sequence (P33316 whole entry): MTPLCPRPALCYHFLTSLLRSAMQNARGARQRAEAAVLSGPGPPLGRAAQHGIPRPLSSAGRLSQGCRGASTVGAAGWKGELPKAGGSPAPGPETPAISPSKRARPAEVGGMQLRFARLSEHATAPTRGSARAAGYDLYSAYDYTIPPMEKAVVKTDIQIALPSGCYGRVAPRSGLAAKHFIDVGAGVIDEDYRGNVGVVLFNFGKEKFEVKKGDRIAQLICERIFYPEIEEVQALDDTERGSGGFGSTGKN
As to the kind of experiment: Inhibition of human recombinant dUTPase.

In data set [3] the target is T2, dUTP pyrophosphatase (Plasmodium falciparum 3D7, UniProt Q8II92).
T2 sequence (Q8II92 whole entry): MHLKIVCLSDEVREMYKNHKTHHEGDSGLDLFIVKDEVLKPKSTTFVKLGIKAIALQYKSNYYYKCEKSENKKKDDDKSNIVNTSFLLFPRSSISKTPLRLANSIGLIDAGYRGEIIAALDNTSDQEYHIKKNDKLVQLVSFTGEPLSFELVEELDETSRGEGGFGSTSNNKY
Kind of data set: Inhibition of Plasmodium falciparum dUTPase.

Data set [4] deals with T3, dUTP pyrophosphatase (Plasmodium falciparum 3D7) (UniProt Q8II92).
T3 sequence (whole entry): T2 sequence (Q8II92 whole entry)
As to the kind of experiment: Selectivity index, human dUTPase/Plasmodium falciparum dUTPase.

Data set [5] in a line: Intrinsic clearance in human liver microsome. It is filed as ADME. As to conditions: liver microsomes.
For data set [6], the system named is Plasmodium falciparum. As to the kind of experiment: Antiplasmodial activity against Plasmodium falciparum. It is filed as functional, organism-based.
Data set [7] is described as follows: Stability in simulated gastric fluid after 5 mins. It is filed as ADME. As to conditions: read-out: Stability.
Data set [8] is described as follows: Stability in simulated gastric fluid after 150 mins. It is filed as ADME. As to conditions: read-out: Stability.

With `O=c1ccn(CCCCOC(c2ccccc2)(c2ccccc2)c2ccccc2)c(=O)[nH]1`, the concentration for half-maximal inhibition (IC50) in data set [1] is 42 µM; in data set [6], 4.9 µM. The Ki in data set [2] was more than 1000 µM; in data set [3], 1.6 µM. For the same compound, the Selectivity index in data set [4] is more than 617. Moreover, the microsomal CLint in data set [5] stood at 68 µL/min/mg. Further, in data set [7], the remaining at 5 min is 2%.

As to `O=c1ccn(CCCCNC(c2ccccc2)(c2ccccc2)c2ccccc2)c(=O)[nH]1`, the IC50 in data set [1] was determined as 33 µM; in data set [6], 3.8 µM. Moreover, the Ki in data set [2] is more than 1000 µM. For the same compound, in data set [4], the Selectivity index is more than 1110. In data set [5], this compound gave a microsomal CLint of 64 µL/min/mg. Moreover, in data set [8], the remaining at 2.5 h is 94%.
